The values below come from PubChem BioAssay (NCI).

Values joined by “and” are separate entries in the source; they are usually repeats but may differ in a detail not shown here. Identical values can stand only once.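 The compound was tested at five concentrations on cells cultured in 96-well plates, with a 48-hour exposure period. GI50 marks 50% less growth. Definition used: TGI = concentration required for complete inhibition of growth.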 Bounds are passed on as bounds.

Among the test systems are OVCAR-3 ovarian; SF-295 CNS; HOP-92 NSCLC; SR leukemia; HCT-116 colon; K-562 leukemia; MALME-3M melanoma; LOX IMVI melanoma; HT29 colon; NCI-H226 lung.
Common to all, as to experiment: NCI anticancer screen, dose series, 48 h

Consider `COc1ccc2c(c1)c(-c1cc(-c3cn(C)c4ccc(OC)cc34)[nH]n1)cn2C`, for which the GI50 with OVCAR-3 ovarian is above 100 µM; with SF-295 CNS it was above 100 µM; with HOP-92 NSCLC, 60.7 µM; in the assay with SR leukemia, above 100 µM; in the assay on HCT-116 colon it was above 100 µM; in the assay with K-562 leukemia, above 100 µM. The GI50 in the assay with MALME-3M melanoma, in the assay on LOX IMVI melanoma, in the assay on HT29 colon and in the assay on NCI-H226 lung was above 100 µM each time. The TGI in the assay with OVCAR-3 ovarian, with SF-295 CNS, with HOP-92 NSCLC, in the assay with SR leukemia, with HCT-116 colon and in the assay on K-562 leukemia was above 100 µM throughout. Further, the TGI in the assay on MALME-3M melanoma, with LOX IMVI melanoma, with HT29 colon and in the assay on NCI-H226 lung was above 100 µM in each case.
As for `C=C1c2ccccc2N(S(=O)(=O)c2ccc(C)cc2)C12CCCCC2`, the TGI with OVCAR-3 ovarian was above 100 µM; in the assay with SF-295 CNS, above 100 µM; with HOP-92 NSCLC it was 58.5 µM; in the assay with SR leukemia, above 100 µM; in the assay with HCT-116 colon it was above 100 µM; in the assay with K-562 leukemia it was above 100 µM. Also, the TGI with MALME-3M melanoma, in the assay on LOX IMVI melanoma, in the assay on HT29 colon and in the assay with NCI-H226 lung was above 100 µM each time.
Take `Cc1nc2cc(Nc3nc(Nc4ccc(F)cc4)nc(-c4ccc(Cl)cc4)n3)ccc2n1Cc1ccccc1`: the GI50 in the assay with OVCAR-3 ovarian is 7.91 µM; in the assay on SF-295 CNS it was 4.81 µM; with HOP-92 NSCLC, 1.74 µM; in the assay on SR leukemia it was 2.88 µM; with HCT-116 colon, 5.04 µM; in the assay with K-562 leukemia, 5.13 µM. The GI50 is 5.29 µM in the assay on MALME-3M melanoma, 12.6 µM in the assay with LOX IMVI melanoma, 4.63 µM in the assay with HT29 colon and 11.4 µM in the assay with NCI-H226 lung. For the same compound, the TGI in the assay with OVCAR-3 ovarian was above 100 µM; in the assay with SF-295 CNS it was 58 µM; in the assay with HOP-92 NSCLC, 23.7 µM; in the assay on SR leukemia, 9.55 µM; with HCT-116 colon, above 100 µM; with K-562 leukemia, above 100 µM. For the same compound, the TGI in the assay on MALME-3M melanoma was 22.4 µM; in the assay with LOX IMVI melanoma, above 100 µM; in the assay with HT29 colon, above 100 µM; with NCI-H226 lung, 37.2 µM.
As to `Cc1cc2c(-c3nc4ccccn4c3NC34CC5CC(CC(C5)C3)C4)c(O)c(O)cc2c(O)c1-c1c(C)cc2c(-c3nc4ccccn4c3NC34CC5CC(CC(C5)C3)C4)c(O)c(O)cc2c1O`, the GI50 was 0.617 µM in the assay on OVCAR-3 ovarian; 0.262 µM with SF-295 CNS; 0.616 µM in the assay on HOP-92 NSCLC; 0.854 µM in the assay with SR leukemia; 0.0889 µM with HCT-116 colon; 0.152 µM with K-562 leukemia. The GI50 was 0.574 µM with MALME-3M melanoma, 0.412 µM in the assay with LOX IMVI melanoma, 0.788 µM in the assay with HT29 colon and 0.929 µM in the assay on NCI-H226 lung. For the same compound, the TGI is 8.3 µM in the assay on OVCAR-3 ovarian; 2.78 µM with SF-295 CNS; 1.88 µM in the assay on HOP-92 NSCLC; 4.86 µM in the assay on SR leukemia; 6.22 µM in the assay on HCT-116 colon; 4.93 µM in the assay with K-562 leukemia. Besides, the TGI in the assay on MALME-3M melanoma was above 25 µM; with LOX IMVI melanoma it was 3.38 µM; in the assay with HT29 colon, above 25 µM; with NCI-H226 lung it was 5.98 µM.
As for `C/C(N=NC(=S)N1CCCCCC1)=C1\C=CC=CN1O`, the TGI was 11.8 µM in the assay with OVCAR-3 ovarian; above 100 µM with SF-295 CNS; 72.4 µM in the assay with HOP-92 NSCLC; above 100 µM with SR leukemia; above 100 µM in the assay on HCT-116 colon; above 51.3 µM with K-562 leukemia. Besides, the TGI was 36.4 µM in the assay with MALME-3M melanoma, above 56.3 µM in the assay with LOX IMVI melanoma, above 35.6 µM in the assay with HT29 colon and above 90.3 µM with NCI-H226 lung.
As for `COc1ccc(-c2nn3ncccc3c2-c2ccnc(Nc3cccc(C(F)(F)F)c3)n2)cc1`, the GI50 is 8.36 µM in the assay on OVCAR-3 ovarian; 7.6 µM with SF-295 CNS; 3.03 µM in the assay on HOP-92 NSCLC; 13.5 µM in the assay with SR leukemia; 7.99 µM in the assay on HCT-116 colon; 8.04 µM in the assay on K-562 leukemia. Besides, the GI50 with MALME-3M melanoma was 10.2 µM; with LOX IMVI melanoma, 6.53 µM; with HT29 colon it was 7.56 µM; in the assay with NCI-H226 lung it was 9.16 µM. Also, the TGI in the assay on OVCAR-3 ovarian was above 25 µM; in the assay on SF-295 CNS it was above 25 µM; in the assay on HOP-92 NSCLC, 16.1 µM; in the assay on SR leukemia, above 25 µM; with HCT-116 colon, above 25 µM; in the assay with K-562 leukemia, above 25 µM. For the same compound, the TGI with MALME-3M melanoma, in the assay on LOX IMVI melanoma, with HT29 colon and in the assay with NCI-H226 lung was above 25 µM throughout.
For `Cc1cc(Nc2cc(N3CCN(C)CC3)nc(C#Cc3ccccc3)n2)n[nH]1`, the GI50 in the assay with OVCAR-3 ovarian was 4.46 µM; with SF-295 CNS, 3.39 µM; with HOP-92 NSCLC, 0.843 µM; with SR leukemia, 3.47 µM; in the assay with HCT-116 colon it was 1.4 µM; in the assay on K-562 leukemia, 3.79 µM. The GI50 with MALME-3M melanoma was 2 µM; with LOX IMVI melanoma, 1.85 µM; in the assay with HT29 colon, 2.02 µM; with NCI-H226 lung it was 2.17 µM. Besides, the TGI in the assay on OVCAR-3 ovarian is 17.8 µM; in the assay with SF-295 CNS, 16.8 µM; in the assay with HOP-92 NSCLC it was 4.84 µM; in the assay with SR leukemia it was 20.4 µM; in the assay with HCT-116 colon, 12.7 µM; in the assay with K-562 leukemia it was 24.4 µM. The TGI with MALME-3M melanoma came to 13.9 µM; in the assay with LOX IMVI melanoma, 12.8 µM; in the assay with HT29 colon, 8.08 µM; with NCI-H226 lung it was 14.3 µM.
Take `O=C1c2c(O)ccc(O)c2C(=O)c2c(NCCNCCO)ccc(NCCNCCO)c21`: the GI50 with OVCAR-3 ovarian is 0.483 µM; with HOP-92 NSCLC it was 0.0312 µM; with SR leukemia, below 0.005 µM; in the assay with HCT-116 colon it was 0.0451 µM; with K-562 leukemia, 0.142 µM. Further, the TGI in the assay on OVCAR-3 ovarian was 1.87 µM and 1.47 µM and 2.13 µM; in the assay on SF-295 CNS it was 0.321 µM and 0.878 µM and 0.526 µM; with HOP-92 NSCLC, 0.773 µM and 0.425 µM and 0.0779 µM; with SR leukemia, 0.102 µM and 0.389 µM and 0.865 µM; in the assay on HCT-116 colon, 0.327 µM and 1.23 µM and 0.858 µM; with K-562 leukemia, 1.71 µM and 1.78 µM. In addition, the TGI is 1.45 µM and 0.955 µM and 0.974 µM in the assay with MALME-3M melanoma; 0.191 µM and 0.571 µM and 0.706 µM in the assay with LOX IMVI melanoma; 1.05 µM and 0.761 µM and 3.63 µM in the assay on HT29 colon; 0.0547 µM and 0.1 µM and 0.136 µM in the assay on NCI-H226 lung.
As for `COc1cc(/C=C2/C(=O)N(C(=O)c3ccccc3O)N=C2C)ccc1O`, the TGI was 0.989 µM in the assay with OVCAR-3 ovarian; above 100 µM in the assay on SF-295 CNS; above 100 µM in the assay on HOP-92 NSCLC; above 100 µM in the assay with SR leukemia; above 100 µM with HCT-116 colon; above 100 µM with K-562 leukemia. For the same compound, the TGI was above 100 µM with MALME-3M melanoma, above 70.6 µM in the assay on LOX IMVI melanoma, above 100 µM in the assay on HT29 colon and 31.2 µM in the assay on NCI-H226 lung.
